Laboratory results reported in ChEMBL document CHEMBL4007427, “Inhibition of the Aldehyde Dehydrogenase 1/2 Family by Psoralen and Coumarin Derivatives” (J Med Chem, 2017).

What was measured:
[1] = biological target: T1, Aldehyde dehydrogenase, dimeric NADP-preferring (Homo sapiens, UniProt P30838); assay: (§1) Inhibition of full length recombinant human ALDH3A1 expressed in Escherichia coli BL21(DE3) assessed as reduction in dehydrogenase activity by measuring NAD(P)H level preincubated for 2 mins followed by addition of benzaldehyde as substrate in presence of NADP+ by spectrophotometric method
T1 sequence (P30838 whole entry): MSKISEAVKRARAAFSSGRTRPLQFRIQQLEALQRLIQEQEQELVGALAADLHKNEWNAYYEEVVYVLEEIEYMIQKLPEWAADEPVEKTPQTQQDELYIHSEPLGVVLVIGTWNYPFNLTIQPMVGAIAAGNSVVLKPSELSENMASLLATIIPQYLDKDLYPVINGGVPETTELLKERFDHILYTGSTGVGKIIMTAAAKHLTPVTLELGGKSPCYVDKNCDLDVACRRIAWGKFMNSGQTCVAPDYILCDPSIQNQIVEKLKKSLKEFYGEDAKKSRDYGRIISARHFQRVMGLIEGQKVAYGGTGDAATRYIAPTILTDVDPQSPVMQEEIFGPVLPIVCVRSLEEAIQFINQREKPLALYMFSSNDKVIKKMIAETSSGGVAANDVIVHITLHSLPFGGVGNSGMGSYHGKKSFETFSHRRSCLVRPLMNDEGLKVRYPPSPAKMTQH

[2] = biological target: T2, Aldehyde dehydrogenase, mitochondrial (Homo sapiens, UniProt P05091)
T2 sequence (P05091 whole entry): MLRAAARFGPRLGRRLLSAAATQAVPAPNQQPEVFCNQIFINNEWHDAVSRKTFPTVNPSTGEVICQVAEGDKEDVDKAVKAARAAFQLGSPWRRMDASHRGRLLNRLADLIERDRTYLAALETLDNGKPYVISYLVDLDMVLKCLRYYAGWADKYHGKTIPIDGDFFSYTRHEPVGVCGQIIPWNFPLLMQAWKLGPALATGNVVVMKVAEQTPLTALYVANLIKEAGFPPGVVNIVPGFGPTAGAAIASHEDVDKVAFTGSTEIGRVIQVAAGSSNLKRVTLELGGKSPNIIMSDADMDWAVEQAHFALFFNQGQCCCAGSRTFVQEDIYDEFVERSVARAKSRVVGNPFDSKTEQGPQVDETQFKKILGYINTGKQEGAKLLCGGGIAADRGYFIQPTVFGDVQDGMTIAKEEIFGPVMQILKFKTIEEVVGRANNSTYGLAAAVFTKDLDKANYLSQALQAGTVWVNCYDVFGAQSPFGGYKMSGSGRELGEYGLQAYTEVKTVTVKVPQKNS
Description: (§3) Inhibition of full length recombinant human ALDH2 expressed in Escherichia coli assessed as reduction in dehydrogenase activity by measuring NAD(P)H level preincubated for 2 mins followed by addition of propionaldehyde as substrate in presence of NAD+ by spectrophotometric method

[3] = biological target: T3, Aldehyde dehydrogenase 1A1 (Homo sapiens, UniProt P00352)
T3 sequence (P00352 whole entry): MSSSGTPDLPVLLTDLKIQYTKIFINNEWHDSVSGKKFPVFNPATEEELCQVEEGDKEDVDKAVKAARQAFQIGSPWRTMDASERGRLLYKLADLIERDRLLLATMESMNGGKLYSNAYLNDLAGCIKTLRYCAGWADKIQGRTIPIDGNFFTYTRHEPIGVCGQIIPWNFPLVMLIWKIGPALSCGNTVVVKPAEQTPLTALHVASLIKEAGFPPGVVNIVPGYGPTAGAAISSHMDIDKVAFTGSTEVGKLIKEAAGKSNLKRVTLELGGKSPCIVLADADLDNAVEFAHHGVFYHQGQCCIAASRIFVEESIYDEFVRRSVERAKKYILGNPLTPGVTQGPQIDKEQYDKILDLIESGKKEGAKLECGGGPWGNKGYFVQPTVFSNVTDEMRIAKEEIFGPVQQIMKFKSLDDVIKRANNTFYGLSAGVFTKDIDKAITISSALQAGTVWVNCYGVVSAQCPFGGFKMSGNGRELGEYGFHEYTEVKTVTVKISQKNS
Description: (§4) Inhibition of full length recombinant human ALDH1A1 expressed in Escherichia coli BL21(DE3) assessed as reduction in dehydrogenase activity by measuring NAD(P)H level preincubated for 2 mins followed by addition of propionaldehyde as substrate in presence of NAD+ by spectrophotometric method

[4] = biological target: T4, Aldehyde dehydrogenase 1A1 (Homo sapiens) (UniProt P00352); assay: (§2) Inhibition of full length recombinant human ALDH1A1 expressed in Escherichia coli BL21(DE3) assessed as remaining dehydrogenase activity by measuring NAD(P)H level at 10 uM preincubated for 2 mins followed by addition of propionaldehyde as substrate in presence of NAD+ by spectrophotometric method
T4 sequence (whole entry): T3 sequence (P00352 whole entry)

[5] = biological target: T5, Aldehyde dehydrogenase, dimeric NADP-preferring (Homo sapiens) (UniProt P30838); assay: as §1, with “method relative to control” for “method”
T5 sequence (whole entry): T1 sequence (P30838 whole entry)

[6] = Lipophilicity, log P of the compound; assay type: physicochemical; settings: octanol/water
[7] = biological target: T5, Aldehyde dehydrogenase, dimeric NADP-preferring (Homo sapiens); assay: Inhibition of full length recombinant human ALDH3A1 expressed in Escherichia coli BL21(DE3) assessed as remaining dehydrogenase activity by measuring NAD(P)H level at 10 uM preincubated for 2 mins followed by addition of propionaldehyde as substrate in presence of NAD+ by spectrophotometric method
[8] = biological target: T6, Aldehyde dehydrogenase, mitochondrial (Homo sapiens) (UniProt P05091); assay: Inhibition of full length recombinant human ALDH2 expressed in Escherichia coli assessed as remaining dehydrogenase activity by measuring NAD(P)H level at 10 uM preincubated for 2 mins followed by addition of propionaldehyde as substrate in presence of NAD+ by spectrophotometric method
T6 sequence (whole entry): T2 sequence (P05091 whole entry)

[9] = biological target: T7, Retinaldehyde dehydrogenase 3 (Homo sapiens, UniProt P47895)
T7 sequence (P47895 whole entry): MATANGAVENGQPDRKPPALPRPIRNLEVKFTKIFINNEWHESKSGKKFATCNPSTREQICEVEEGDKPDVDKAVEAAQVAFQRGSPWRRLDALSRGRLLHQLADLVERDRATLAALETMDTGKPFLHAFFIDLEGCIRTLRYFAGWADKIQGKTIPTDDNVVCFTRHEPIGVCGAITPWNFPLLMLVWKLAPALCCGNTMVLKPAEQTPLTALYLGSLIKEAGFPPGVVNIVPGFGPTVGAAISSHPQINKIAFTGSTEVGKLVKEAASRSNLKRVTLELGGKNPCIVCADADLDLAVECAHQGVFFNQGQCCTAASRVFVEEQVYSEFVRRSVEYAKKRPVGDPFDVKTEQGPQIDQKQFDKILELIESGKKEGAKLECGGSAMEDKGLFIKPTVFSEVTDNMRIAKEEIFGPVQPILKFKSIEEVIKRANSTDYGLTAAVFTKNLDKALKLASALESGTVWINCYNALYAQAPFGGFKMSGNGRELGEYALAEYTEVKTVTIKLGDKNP
Description: (§5) Inhibition of full length recombinant human ALDH1A3 expressed in Escherichia coli BL21(DE3) assessed as reduction in dehydrogenase activity by measuring NAD(P)H level preincubated for 2 mins followed by addition of propionaldehyde as substrate in presence of NAD+ by spectrophotometric method

Retinal dehydrogenase 2 = biological target: T8, Retinal dehydrogenase 2 (Homo sapiens, UniProt O94788)
T8 sequence (O94788 whole entry): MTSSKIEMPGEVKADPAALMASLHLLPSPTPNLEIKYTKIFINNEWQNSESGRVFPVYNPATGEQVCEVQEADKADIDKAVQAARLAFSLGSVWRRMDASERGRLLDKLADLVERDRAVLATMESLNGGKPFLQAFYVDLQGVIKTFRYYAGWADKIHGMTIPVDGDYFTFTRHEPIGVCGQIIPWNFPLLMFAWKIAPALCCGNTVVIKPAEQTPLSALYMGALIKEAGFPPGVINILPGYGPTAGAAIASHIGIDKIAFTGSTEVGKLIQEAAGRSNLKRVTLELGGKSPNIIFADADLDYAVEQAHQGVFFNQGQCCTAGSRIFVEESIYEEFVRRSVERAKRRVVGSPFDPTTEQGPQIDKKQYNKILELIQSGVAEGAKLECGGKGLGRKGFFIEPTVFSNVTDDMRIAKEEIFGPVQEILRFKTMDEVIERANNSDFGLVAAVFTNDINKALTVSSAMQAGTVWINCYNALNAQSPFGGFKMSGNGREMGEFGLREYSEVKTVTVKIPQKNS
Description: Inhibition of full length recombinant human ALDH1A2 expressed in Escherichia coli BL21(DE3) assessed as reduction in dehydrogenase activity by measuring NAD(P)H level preincubated for 2 mins followed by addition of propionaldehyde as substrate in presence of NAD+ by spectrophotometric method

[10] = biological target: T2, Aldehyde dehydrogenase, mitochondrial; remark: listed apart in the source
Description: as §3

[11] = biological target: T9, Aldehyde dehydrogenase X, mitochondrial (Homo sapiens, UniProt P30837)
T9 sequence (P30837 whole entry): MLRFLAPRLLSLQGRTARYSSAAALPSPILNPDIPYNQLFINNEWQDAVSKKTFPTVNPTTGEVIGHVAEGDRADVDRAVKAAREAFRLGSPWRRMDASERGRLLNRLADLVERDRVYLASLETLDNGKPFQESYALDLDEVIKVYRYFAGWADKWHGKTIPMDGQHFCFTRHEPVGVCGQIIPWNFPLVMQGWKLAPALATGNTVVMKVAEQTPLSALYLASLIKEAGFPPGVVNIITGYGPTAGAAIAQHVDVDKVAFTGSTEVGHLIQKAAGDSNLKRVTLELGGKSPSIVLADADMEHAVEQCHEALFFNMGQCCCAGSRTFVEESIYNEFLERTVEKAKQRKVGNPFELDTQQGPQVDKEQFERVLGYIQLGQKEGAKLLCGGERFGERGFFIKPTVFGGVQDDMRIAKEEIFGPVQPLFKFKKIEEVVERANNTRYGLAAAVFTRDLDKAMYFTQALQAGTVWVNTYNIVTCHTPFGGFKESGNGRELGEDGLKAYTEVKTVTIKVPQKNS
Description: (§6) Inhibition of full length recombinant human ALDH1B1 expressed in Escherichia coli TunerDE3 assessed as reduction in dehydrogenase activity by measuring NAD(P)H level preincubated for 2 mins followed by addition of propionaldehyde as substrate in presence of NAD+ by spectrophotometric method

[12] = biological target: T3, Aldehyde dehydrogenase 1A1; remark: listed apart in the source
Description: as §4

[13] = biological target: T7, Retinaldehyde dehydrogenase 3; remark: listed apart in the source
Description: as §5

[14] = biological target: T3, Aldehyde dehydrogenase 1A1; remark: listed apart in the source
[15] = biological target: T3, Aldehyde dehydrogenase 1A1; remark: listed apart in the source
Description: Non-competitive inhibition of full length recombinant human ALDH1A1 expressed in Escherichia coli BL21(DE3) assessed as reduction in dehydrogenase activity by measuring NAD(P)H level using varying levels propionaldehyde in presence of NAD+ by Lineweaver-Burk plot analysis

[16] = biological target: T9, Aldehyde dehydrogenase X, mitochondrial; remark: listed apart in the source
Description: as §6

[17] = biological target: T2, Aldehyde dehydrogenase, mitochondrial; assay: Mixed-type non-competitive inhibition of full length recombinant human ALDH2 expressed in Escherichia coli assessed as reduction in dehydrogenase activity using propionaldehyde as substrate in presence of varying levels NAD+ by Lineweaver-Burk plot analysis
[18] = biological target: T4, Aldehyde dehydrogenase 1A1 (Homo sapiens); assay: as §2, with “reduction in” for “remaining”, “level” for “level at 10 uM”, “method relative to control” for “method”
[19] = biological target: T10, Cytosolic 10-formyltetrahydrofolate dehydrogenase (Rattus norvegicus, UniProt P28037); assay: Inhibition of rat ALDH1L1 assessed as reduction in dehydrogenase activity by measuring NAD(P)H level preincubated for 2 mins followed by addition of propionaldehyde as substrate in presence of NAD+ by spectrophotometric method
T10 sequence (P28037 whole entry): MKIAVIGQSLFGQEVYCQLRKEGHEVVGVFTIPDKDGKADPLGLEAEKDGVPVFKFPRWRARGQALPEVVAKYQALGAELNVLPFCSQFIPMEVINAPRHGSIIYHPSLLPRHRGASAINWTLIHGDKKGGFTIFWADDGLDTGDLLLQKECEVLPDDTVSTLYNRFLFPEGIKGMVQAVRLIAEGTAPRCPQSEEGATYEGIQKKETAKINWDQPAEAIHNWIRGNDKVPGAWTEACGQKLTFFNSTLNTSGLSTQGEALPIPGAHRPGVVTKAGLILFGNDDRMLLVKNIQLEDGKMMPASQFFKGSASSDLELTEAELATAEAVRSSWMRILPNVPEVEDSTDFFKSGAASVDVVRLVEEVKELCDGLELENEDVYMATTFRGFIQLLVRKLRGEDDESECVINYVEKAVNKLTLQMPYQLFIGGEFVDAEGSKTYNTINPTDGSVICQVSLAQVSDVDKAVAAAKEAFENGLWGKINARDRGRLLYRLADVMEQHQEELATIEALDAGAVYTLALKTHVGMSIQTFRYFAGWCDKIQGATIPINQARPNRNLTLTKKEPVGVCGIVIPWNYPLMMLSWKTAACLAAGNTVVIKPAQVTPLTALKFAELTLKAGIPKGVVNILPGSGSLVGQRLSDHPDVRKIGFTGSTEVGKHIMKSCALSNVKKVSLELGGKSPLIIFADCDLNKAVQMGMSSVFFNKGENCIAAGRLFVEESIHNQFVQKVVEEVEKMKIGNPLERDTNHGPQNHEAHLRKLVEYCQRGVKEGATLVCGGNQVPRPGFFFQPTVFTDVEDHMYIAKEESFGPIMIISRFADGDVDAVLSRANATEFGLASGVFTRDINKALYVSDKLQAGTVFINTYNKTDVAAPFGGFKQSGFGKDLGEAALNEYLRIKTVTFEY

Row | Structure (SMILES) | IC50 [2] | Activity [4] | logP [6] | Activity [7] | Activity [8] | IC50 [1] | IC50 [9] | IC50 (Retinal dehydrogenase 2) | IC50 [10] | IC50 [11] | IC50 [12] | IC50 [13] | Ki [15] | other results
1 | Cc1cc(=O)oc2cc3c(cc12)CCC(=O)O3 | 0.47 µM | 65.2% | 2.11 | 53.6% | 25.5% |  |  |  |  |  |  |  |  | IC50 ([1]; read-out: IC50): 5.4 µM; IC50 [3]: Not Active; Imax [5]: 50 to 60%
2 | Cc1c(Cc2ccccc2)c(=O)oc2cc(OS(C)(=O)=O)ccc12 |  | 24.6% | 3.44 | 86.9% | 99.7% | Not Active | 10 µM | 11 µM | Not Active | 13 µM | 2.8 µM |  |  | 
3 | CCN(CC)c1ccc2c(C)cc(=O)oc2c1 |  | 14.3% | 3.63 | 109% | 71.7% | Not Active |  | > 10 µM | Not Active |  | 0.76 µM | Not Active | 1.2 µM | Ki [14]: 0.87 µM; IC50 [16]: Not Active
4 | Cc1cc(=O)oc2cc(OCC#N)ccc12 |  | 35.7% | 1.22 | 20.4% | 41.3% |  |  |  |  |  |  |  | 6.9 µM | Ki [17]: 5.6 µM
5 | Cc1oc2cc3oc(=O)c4c(c3cc2c1C)CCCC4 | 0.067 µM | 56.3% | 4.27 | 94.1% | 16.3% | Not Active |  | 0.065 µM |  | 0.095 µM | 0.13 µM | Not Active |  | Imax [18]: 50 to 60%
6 | O=c1c(-c2ccc(O)cc2)coc2cc(O[C@@H]3O[C@H](CO)[C@@H](O)[C@H](O)[C@H]3O)ccc12 [DAIDZIN] |  |  |  |  |  | Not Active | > 200 µM | 4.5 µM |  | 5.1 µM | > 200 µM |  |  | IC50 [19]: Not Active
